Reference: US20060252800A1, “Anti-leishmania agent” (priority 2003, published 2006)
pIC50: −log10 of the molar value.

How the values were obtained:
Leishmania (L. major) = experiment: Leishmania protozoa proliferation inhibition assay; assay type: cell-based; details: for OD level (number of viable Leishmania protozoa): 48 hours at 27° C., absorbance 450 nm minus 630 nm; for pIC50: calculated from the graphs of FIGS. 1 to 4 (concentration vs number of viable leishmania protozoa), read-out: Concentration inhibiting 50% leishmania proliferation
Method: After dissolving each of the obtained compounds in dimethylsulfoxide (hereinafter referred to as DMSO), the resultant was diluted by 9 steps in Medium 199 medium (Invitrogen) to the indicated concentration, filtrated with a membrane filter, and each of the filtration was made as a sample solution. […] By keeping the solution at 27° C., incubation was performed under 5% CO2, for 48 hours. Then, TetraColor ONE (tradename: Seikagaku Corporation) reagent was added thereto and further incubated for 6 hours. Then, the absorbance at a wavelength of 450 nm was measured for the 96-well microtiter plate with a microplate reader, the wave length of 630 nm was made as reference wave length, and in order to exclude background effect, the absorbance at 630 nm was excluded from the one at 450 nm, and the OD level was calculated as a level to indicate the number of viable Leishmania protozoa. The assay was performed by three wells at a time for each concentration of each sample, and the mean level was made as OD level. […] Amphotericin B was used as positive control. […] Inhibiting effect against […] protozoa for each sample was similar or more compared with that of Amtephotericin B.

[1] = Table 2, sample concentration 0.0001 mg/ml
[2] = Table 2, sample concentration 0.0007 mg/ml
[3] = Table 2, sample concentration 0.002 mg/ml
[4] = Table 2, sample concentration 0.008 mg/ml
[5] = Table 2, sample concentration 0.025 mg/ml
[6] = Table 2, sample concentration 0.084 mg/ml
[7] = Table 2, sample concentration 0.279 mg/ml
[8] = Table 2, sample concentration 0.93 mg/ml
[9] = Table 2, sample concentration 3.1 mg/ml
[10] = Table 2, sample concentration 2E−04 mg/ml
[11] = Table 1, sample concentration 0.001 mg/ml
[12] = Table 1, sample concentration 0.016384 mg/ml
[13] = Table 1, sample concentration 0.04096 mg/ml
[14] = Table 1, sample concentration 0.1024 mg/ml
[15] = Table 1, sample concentration 0.256 mg/ml
[16] = Table 1, sample concentration 0.64 mg/ml
[17] = Table 1, sample concentration 1.6 mg/ml
[18] = Table 1, sample concentration 4 mg/ml
[19] = Table 1, sample concentration 10 mg/ml
[20] = Table 1, sample concentration 25 mg/ml, mean of three wells

| melting point [°C] | Compound | OD level (number of viable Leishmania protozoa) (Leishmania (L. major); [1]) | OD level (number of viable Leishmania protozoa) (Leishmania (L. major); [2]) | OD level (number of viable Leishmania protozoa) (Leishmania (L. major); [3]) | OD level (number of viable Leishmania protozoa) (Leishmania (L. major); [4]) | OD level (number of viable Leishmania protozoa) (Leishmania (L. major); [5]) | OD level (number of viable Leishmania protozoa) (Leishmania (L. major); [6]) | OD level (number of viable Leishmania protozoa) (Leishmania (L. major); [7]) | OD level (number of viable Leishmania protozoa) (Leishmania (L. major); [8]) | OD level (number of viable Leishmania protozoa) (Leishmania (L. major); [9]) | OD level (number of viable Leishmania protozoa) (Leishmania (L. major); [10]) | pIC50 (Leishmania (L. major)) | OD level (number of viable Leishmania protozoa) (Leishmania (L. major); [11]) | OD level (number of viable Leishmania protozoa) (Leishmania (L. major); [12]) | OD level (number of viable Leishmania protozoa) (Leishmania (L. major); [13]) | OD level (number of viable Leishmania protozoa) (Leishmania (L. major); [14]) | OD level (number of viable Leishmania protozoa) (Leishmania (L. major); [15]) | OD level (number of viable Leishmania protozoa) (Leishmania (L. major); [16]) | OD level (number of viable Leishmania protozoa) (Leishmania (L. major); [17]) | OD level (number of viable Leishmania protozoa) (Leishmania (L. major); [18]) | further results |
| --- | --- | --- | --- | --- | --- | --- | --- | --- | --- | --- | --- | --- | --- | --- | --- | --- | --- | --- | --- | --- | --- |
| 299 to 300 | CCCC[n+]1ccc(/C=c2\s/c(=C3/Sc4ccccc4N3C)c(=O)n2CC)cc1.[Br-] [I (b), 1-butyl-4-[3-ethyl-{5-(3-methyl-2(3H)-benzothiazolylidene)-4-oxo-2-thiazolidinylidene}methyl]pyridinium=bromide] | 0.363 | 0.345 | 0.335 | 0.335 | 0.435 | 0.465 | 0.106 | 0.032 | 0.032 | 0.343 | 5.43 | – | – | – | – | – | – | – | – | – |
| 237 to 242 | CCCC[n+]1ccccc1/C=c1\s/c(=C2/Sc3ccccc3N2C)c(=O)n1CC.[I-] [I (c), 1-butyl-2-[3-ethyl-{5-(3-methyl-2(3H)-benzothiazolylidene)-4-oxo-2-thiazolidinylidene}methyl]pyridinium=iodide] | 0.365 | 0.360 | 0.394 | 0.407 | 0.317 | 0.117 | 0.042 | 0.029 | 0.031 | 0.350 | 6.00 | – | – | – | – | – | – | – | – | – |
| – | CCn1c(=Cc2sc3ccccc3[n+]2C)sc(=C2Sc3ccc4ccccc4c3N2C)c1=O.Cc1ccc(S(=O)(=O)[O-])cc1 [IV (m), 2-[{5-(3-methyl-2(3H)-benzobenzo[e]thiazolilidene)-4-oxo-3-ethyl-2-thiazolidinylidene}methyl]-1-methylbenzothiazolium=p-toluenesulfonate] | – | – | – | – | – | – | – | – | – | – | 5.57 | – | – | – | – | – | – | – | – | OD level (number of viable Leishmania protozoa) (Leishmania (L. major); Table 3, sample concentration 0.001 mg/ml): 0.340; OD level (number of viable Leishmania protozoa) (Leishmania (L. major); Table 3, sample concentration 0.002165 mg/ml): 0.344; OD level (number of viable Leishmania protozoa) (Leishmania (L. major); Table 3, sample concentration 0.0072171 mg/ml): 0.342; OD level (number of viable Leishmania protozoa) (Leishmania (L. major); Table 3, sample concentration 0.02406 mg/ml): 0.354; OD level (number of viable Leishmania protozoa) (Leishmania (L. major); Table 3, sample concentration 0.08019 mg/ml): 0.379; OD level (number of viable Leishmania protozoa) (Leishmania (L. major); Table 3, sample concentration 0.2673 mg/ml): 0.422; OD level (number of viable Leishmania protozoa) (Leishmania (L. major); Table 3, sample concentration 0.891 mg/ml): 0.385; OD level (number of viable Leishmania protozoa) (Leishmania (L. major); Table 3, sample concentration 2.97 mg/ml): 0.149; OD level (number of viable Leishmania protozoa) (Leishmania (L. major); Table 3, sample concentration 9.9 mg/ml): 0.033; OD level (number of viable Leishmania protozoa) (Leishmania (L. major); Table 3, sample concentration 33 mg/ml): 0.027 |
| – | CN1/C(=C\c2cccc[n+]2C)Sc2ccccc21 [V (a), 2-[(3-methyl-2(3H)-benzothiazolylidene)methyl]-1-methylpyridinium=p-toluenesulfonate] | – | – | – | – | – | – | – | – | – | – | 6.31 | 0.464 | 0.615 | 1.237 | 0.596 | 0.139 | 0.046 | 0.032 | 0.029 | OD level (number of viable Leishmania protozoa) (Leishmania (L. major); [19]): 0.031; OD level (number of viable Leishmania protozoa) (Leishmania (L. major); [20]): 0.032 |
| – | CCN1C(=O)CS/C1=C\c1sc2ccccc2[n+]1CC [V (b), 2-[(4-oxo-3-ethyl-2-thiazolidinylidene)methyl]-3-ethylbenzothiazolium=p-toluenesulfonate] | – | – | – | – | – | – | – | – | – | – | 5.92 | 0.441 | 0.458 | 0.520 | 0.533 | 0.363 | 0.145 | 0.047 | 0.040 | OD level (number of viable Leishmania protozoa) (Leishmania (L. major); [19]): 0.042; OD level (number of viable Leishmania protozoa) (Leishmania (L. major); [20]): 0.056 |
